From ChEMBL document CHEMBL1145107, “Peptide science: exploring the use of chemical principles and interdisciplinary collaboration for understanding life processes” (J Med Chem, 2003)
Where a SMILES comes first, the peptide text is derived from it. [ ]: non-standard residue; d: D form. NMeNle = CCCC[C@H](NC)C(=O)O; dNle = CCCC[C@@H](N)C(=O)O

Tests used:
[1] = system: Anolis carolinensis; experiment: Biological activity using the lizard skin (Anolis carolinensis) assay. The value indicates no prolonged biological activity; format: functional, organism-based
[2] = Biological activity using the frog skin (Rana pipiens) assay. The value indicates no prolonged biological activity; format: functional
[3] = target: T1, Oxytocin receptor (Homo sapiens, UniProt P30559); experiment: Binding affinity towards oxytocin receptor
T1 sequence (P30559 whole entry): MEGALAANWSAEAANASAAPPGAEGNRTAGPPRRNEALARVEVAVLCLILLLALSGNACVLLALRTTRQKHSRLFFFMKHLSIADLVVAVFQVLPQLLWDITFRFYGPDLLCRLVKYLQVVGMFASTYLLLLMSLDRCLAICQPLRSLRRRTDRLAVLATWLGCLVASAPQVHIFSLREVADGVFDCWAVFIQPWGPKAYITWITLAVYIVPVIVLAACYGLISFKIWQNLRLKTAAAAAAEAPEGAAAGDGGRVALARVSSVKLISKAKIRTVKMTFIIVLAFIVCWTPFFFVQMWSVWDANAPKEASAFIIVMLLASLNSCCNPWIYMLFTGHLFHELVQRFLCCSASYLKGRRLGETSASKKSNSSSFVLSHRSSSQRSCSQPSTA

[4] = system: Anolis carolinensis; experiment: Biological activity using the lizard skin (Anolis carolinensis) assay. The value indicates prolonged biological activity; format: functional, organism-based
[5] = Biological activity using the frog skin (Rana pipiens) assay. The value indicates prolonged biological activity; format: functional
[6] = target: T2, Cholecystokinin receptor type A (Homo sapiens, UniProt P32238); experiment: Binding affinity towards Cholecystokinin type A receptor (CCK-A) receptor was determined
T2 sequence (P32238 whole entry): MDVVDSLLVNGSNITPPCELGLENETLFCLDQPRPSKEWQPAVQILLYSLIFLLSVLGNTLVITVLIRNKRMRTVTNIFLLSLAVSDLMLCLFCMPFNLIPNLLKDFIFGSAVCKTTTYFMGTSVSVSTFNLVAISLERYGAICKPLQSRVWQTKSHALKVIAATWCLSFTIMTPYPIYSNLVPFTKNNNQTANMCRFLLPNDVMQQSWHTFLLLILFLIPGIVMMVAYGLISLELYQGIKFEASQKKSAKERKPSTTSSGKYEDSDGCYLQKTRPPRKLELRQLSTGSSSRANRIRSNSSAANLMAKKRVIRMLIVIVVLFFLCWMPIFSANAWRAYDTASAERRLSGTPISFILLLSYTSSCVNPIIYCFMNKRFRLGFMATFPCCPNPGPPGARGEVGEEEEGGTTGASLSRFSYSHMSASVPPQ

[7] = target: T3, Gastrin/cholecystokinin type B receptor (Homo sapiens, UniProt P32239); experiment: Binding affinity towards Cholecystokinin type B receptor (CCK-B) receptor was determined
T3 sequence (P32239 whole entry): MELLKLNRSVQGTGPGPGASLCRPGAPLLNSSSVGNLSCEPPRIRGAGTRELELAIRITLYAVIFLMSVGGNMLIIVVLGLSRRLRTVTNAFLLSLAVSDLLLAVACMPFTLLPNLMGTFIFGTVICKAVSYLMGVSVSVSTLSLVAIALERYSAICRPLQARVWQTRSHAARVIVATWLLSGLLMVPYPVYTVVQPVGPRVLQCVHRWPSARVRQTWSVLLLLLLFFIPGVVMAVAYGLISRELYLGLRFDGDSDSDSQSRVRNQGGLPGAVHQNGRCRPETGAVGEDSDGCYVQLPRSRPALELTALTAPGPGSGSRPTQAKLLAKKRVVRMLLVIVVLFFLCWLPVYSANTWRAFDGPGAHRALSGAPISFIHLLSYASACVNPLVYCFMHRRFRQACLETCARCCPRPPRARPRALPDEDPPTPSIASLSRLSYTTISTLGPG

[8] = target: Delta-type opioid receptor (Homo sapiens, UniProt P41143); experiment: Binding affinity towards Opioid receptor delta 1 was determined
[9] = target: T4, Mu-type opioid receptor (Homo sapiens, UniProt P35372); experiment: Binding affinity towards Opioid receptor mu 1 was determined
[10] = target: Delta-type opioid receptor (Rattus norvegicus, UniProt P33533); experiment: Binding affinity towards Opioid receptor delta 1 using [3H]- [p-CIPhe4] DPDPE as radioligand
[11] = target: T4, Mu-type opioid receptor; experiment: Binding affinity towards Opioid receptor mu 1 using [3H]- CTOP as radioligand

Sequence of Delta-type opioid receptor (Homo sapiens, UniProt P41143) (P41143 whole entry): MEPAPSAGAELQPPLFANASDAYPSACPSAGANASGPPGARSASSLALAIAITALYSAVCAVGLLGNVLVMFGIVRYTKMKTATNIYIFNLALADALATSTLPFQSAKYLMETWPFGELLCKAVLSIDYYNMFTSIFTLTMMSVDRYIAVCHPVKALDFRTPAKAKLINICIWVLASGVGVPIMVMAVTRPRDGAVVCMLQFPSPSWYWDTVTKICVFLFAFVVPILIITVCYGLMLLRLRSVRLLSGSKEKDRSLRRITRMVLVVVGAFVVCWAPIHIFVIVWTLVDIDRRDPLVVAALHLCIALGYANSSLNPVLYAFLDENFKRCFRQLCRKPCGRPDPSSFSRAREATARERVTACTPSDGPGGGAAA
T4 sequence (P35372 whole entry): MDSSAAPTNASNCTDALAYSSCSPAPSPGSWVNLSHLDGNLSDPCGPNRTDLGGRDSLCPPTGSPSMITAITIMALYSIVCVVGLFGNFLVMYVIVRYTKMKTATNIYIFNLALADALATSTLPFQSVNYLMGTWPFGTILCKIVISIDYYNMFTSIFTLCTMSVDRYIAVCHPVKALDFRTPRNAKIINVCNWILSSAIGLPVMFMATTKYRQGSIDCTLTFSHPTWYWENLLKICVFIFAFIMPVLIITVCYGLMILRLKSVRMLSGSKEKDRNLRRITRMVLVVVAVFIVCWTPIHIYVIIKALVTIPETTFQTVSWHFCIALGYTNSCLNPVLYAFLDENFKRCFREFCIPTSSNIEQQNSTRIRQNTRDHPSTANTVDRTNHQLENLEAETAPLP
Sequence of Delta-type opioid receptor (Rattus norvegicus, UniProt P33533) (P33533 whole entry): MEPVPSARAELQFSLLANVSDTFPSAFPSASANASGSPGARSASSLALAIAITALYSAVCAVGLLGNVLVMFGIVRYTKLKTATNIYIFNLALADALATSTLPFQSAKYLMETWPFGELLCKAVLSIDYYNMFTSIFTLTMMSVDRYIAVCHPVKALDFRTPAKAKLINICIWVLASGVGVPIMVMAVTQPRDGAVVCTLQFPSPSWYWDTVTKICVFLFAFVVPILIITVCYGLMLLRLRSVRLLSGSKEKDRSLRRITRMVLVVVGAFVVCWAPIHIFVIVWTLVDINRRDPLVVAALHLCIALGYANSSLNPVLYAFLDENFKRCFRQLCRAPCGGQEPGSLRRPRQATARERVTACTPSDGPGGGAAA

CCCC[C@H](NC(C)=O)C(=O)N[C@H]1CC(=O)NCCC[C@@H](C(N)=O)NC(=O)[C@H](Cc2c[nH]c3ccccc23)NC(=O)[C@H](CCCN=C(N)N)NC(=O)[C@@H](Cc2ccccc2)NC(=O)[C@H](Cc2c[nH]cn2)NC1=O
EC50 [1]: 0.05 nM | EC50 [2]: 0.5 nM

CC[C@H](C)[C@@H]1NC(=O)[C@H]([C@H](C)c2c(C)cc(OC)cc2C)NC(=O)[C@H](N)C(C)(C)SSC[C@@H]2NC(=O)[C@@H](CC(N)=O)NC(=O)[C@@H](CCC(=O)NCCCC[C@H](C(=O)NCC(N)=O)NC(=O)[C@H]3CCCN3C2=O)NC1=O
IC50 [3]: 19000 nM

CCCC[C@H](NC(C)=O)C(=O)N[C@H]1CC(=O)NCC[C@@H](C(N)=O)NC(=O)[C@H](Cc2c[nH]c3ccccc23)NC(=O)[C@H](CCCN=C(N)N)NC(=O)[C@@H](Cc2ccccc2)NC(=O)[C@H](Cc2c[nH]cn2)NC1=O
EC50 [1]: 0.2 nM | EC50 [2]: 0.5 nM

CCCC[C@H](NC(C)=O)C(=O)N[C@H]1CCC(=O)NCCCC[C@@H](C(N)=O)NC(=O)[C@H](Cc2c[nH]c3ccccc23)NC(=O)[C@H](CCCN=C(N)N)NC(=O)[C@@H](Cc2ccccc2)NC(=O)[C@H](Cc2c[nH]cn2)NC1=O
EC50 [4]: 0.11 nM | EC50 [5]: 1 nM

CCCC[C@@H](NC(=O)[C@@H](N)Cc1ccc(O)cc1)C(=O)NCC(=O)N[C@@H](Cc1c[nH]c2ccccc12)C(=O)N(C)[C@@H](CCCC)C(=O)N[C@@H](CC(=O)O)C(=O)N[C@@H](Cc1ccccc1)C(N)=O (H-Y[dNle]GW[NMeNle]DF-NH2)
Ki [6]: 3900 nM | Ki [7]: 0.6 nM | Ki [8]: 1.6 nM | Ki [9]: 25 nM

CCCC[C@H](NC(C)=O)C(=O)N[C@H]1CC(=O)NCCCC[C@@H](C(N)=O)NC(=O)[C@H]([C@H](C)c2c[nH]c3ccccc23)NC(=O)[C@H](CCCN=C(N)N)NC(=O)[C@@H](Cc2ccccc2)NC(=O)[C@H](Cc2c[nH]cn2)NC1=O
EC50 [1]: 6.7 nM | EC50 [2]: 29 nM

CCCC[C@@H](C(=O)N[C@@H](CC(=O)O)C(=O)N[C@@H](Cc1ccccc1)C(N)=O)N(C)C(=O)[C@@H](Cc1c[nH]c2ccccc12)NC(=O)CNC(=O)[C@@H](C)NC(=O)[C@@H](N)Cc1ccc(O)cc1 (H-Y[dA]G[dW][NMeNle]DF-NH2)
Ki [6]: 32 nM | Ki [7]: 1.3 nM | Ki [8]: 1.9 nM | Ki [9]: 20 nM

CCCC[C@H](NC(C)=O)C(=O)N[C@H]1CC(=O)NCCCC[C@@H](C(=O)NCC(=O)N2CCC[C@H]2C(=O)N[C@H](C(N)=O)C(C)C)NC(=O)[C@H](Cc2c[nH]c3ccccc23)NC(=O)[C@H](CCCN=C(N)N)NC(=O)[C@@H](Cc2ccccc2)NC(=O)[C@H](Cc2c[nH]cn2)NC1=O
EC50 [4]: 0.01 nM | EC50 [5]: 0.5 nM

CCCC[C@@H](C(=O)N[C@@H](CC(=O)O)C(=O)N[C@@H](Cc1ccccc1)C(N)=O)N(C)C(=O)[C@@H](Cc1c[nH]c2ccccc12)NC(=O)CNC(=O)[C@@H](Cc1ccccc1)NC(=O)[C@@H](N)Cc1ccc(O)cc1 (H-Y[dF]G[dW][NMeNle]DF-NH2)
Ki [7]: 1.6 nM | Ki [8]: 0.5 nM | Ki [9]: 5.7 nM

CCCC[C@H](NC(C)=O)C(=O)N[C@H]1CC(=O)NCCCC[C@@H](C(N)=O)NC(=O)[C@H]([C@@H](C)c2c[nH]c3ccccc23)NC(=O)[C@H](CCCN=C(N)N)NC(=O)[C@@H](Cc2ccccc2)NC(=O)[C@H](Cc2c[nH]cn2)NC1=O
EC50 [4]: 1 nM | EC50 [2]: 0.44 nM

CCCC[C@@H](C(=O)N[C@@H](CC(=O)O)C(=O)N[C@@H](Cc1ccccc1)C(N)=O)N(C)C(=O)[C@H](Cc1c[nH]c2ccccc12)NC(=O)CNC(=O)CNC(=O)[C@@H](N)Cc1ccc(O)cc1 (H-YGGW[NMeNle]DF-NH2)
Ki [6]: 870 nM | Ki [7]: 1.3 nM | Ki [8]: 2000 nM | Ki [9]: 610 nM

CCCC[C@@H](C(=O)N[C@@H](CC(=O)O)C(=O)N[C@@H](Cc1ccccc1)C(N)=O)N(C)C(=O)[C@H](Cc1c[nH]c2ccccc12)NC(=O)CNC(=O)[C@@H](Cc1ccccc1)NC(=O)[C@H](Cc1ccc(O)cc1)NC(=O)[C@@H](N)CC(=O)O
Ki [6]: 3330 nM | Ki [9]: 5200 nM

CCCC[C@H](NC(C)=O)C(=O)N[C@H]1CCC(=O)NCCCC[C@@H](C(=O)NCC(=O)N2CCC[C@H]2C(=O)N[C@H](C(N)=O)C(C)C)NC(=O)[C@H](Cc2c[nH]c3ccccc23)NC(=O)[C@H](CCCN=C(N)N)NC(=O)[C@@H](Cc2ccccc2)NC(=O)[C@H](Cc2c[nH]cn2)NC1=O
EC50 [4]: 0.17 nM | EC50 [5]: 0.5 nM

CCCC[C@H](NC(C)=O)C(=O)N[C@H]1CC(=O)NCCCC[C@@H](C(N)=O)NC(=O)[C@@H]([C@@H](C)c2c[nH]c3ccccc23)NC(=O)[C@H](CCCN=C(N)N)NC(=O)[C@@H](Cc2ccccc2)NC(=O)[C@H](Cc2c[nH]cn2)NC1=O
EC50 [4]: 1.43 nM | EC50 [5]: 0.06 nM

CCCC[C@H](NC(C)=O)C(=O)N[C@H]1CC(=O)NCCCC[C@@H](C(N)=O)NC(=O)[C@@H]([C@H](C)c2c[nH]c3ccccc23)NC(=O)[C@H](CCCN=C(N)N)NC(=O)[C@@H](Cc2ccccc2)NC(=O)[C@H](Cc2c[nH]cn2)NC1=O
EC50 [4]: 1 nM | EC50 [5]: 0.33 nM

CCCC[C@H](NC(C)=O)C(=O)N[C@H]1CC(=O)NC[C@@H](C(N)=O)NC(=O)[C@H](Cc2c[nH]c3ccccc23)NC(=O)[C@H](CCCN=C(N)N)NC(=O)[C@@H](Cc2ccccc2)NC(=O)[C@H](Cc2c[nH]cn2)NC1=O
EC50 [1]: 0.2 nM | EC50 [2]: 50 nM

CCCC[C@@H](C(=O)N[C@@H](CC(=O)O)C(=O)N[C@@H](Cc1ccccc1)C(N)=O)N(C)C(=O)[C@H](Cc1c[nH]c2ccccc12)NC(=O)[C@H](CCC(=O)O)NC(=O)[C@@H](Cc1ccccc1)NC(=O)[C@@H](N)Cc1ccc(O)cc1
Ki [6]: 10000 nM | Ki [7]: 2.1 nM | Ki [8]: 6.8 nM | Ki [9]: 136 nM

CC[C@H](C)[C@@H]1NC(=O)[C@@H]([C@@H](C)c2c(C)cc(OC)cc2C)NC(=O)[C@H](N)C(C)(C)SSC[C@@H]2NC(=O)[C@@H](CC(N)=O)NC(=O)[C@@H](CCC(=O)NCCCC[C@H](C(=O)NCC(N)=O)NC(=O)[C@H]3CCCN3C2=O)NC1=O
IC50 [3]: 36000 nM

CC[C@H](C)[C@@H]1NC(=O)[C@@H]([C@H](C)c2c(C)cc(OC)cc2C)NC(=O)[C@H](N)C(C)(C)SSC[C@@H]2NC(=O)[C@H](CC(N)=O)NC(=O)[C@H](CCC(=O)NCCCC[C@@H](C(=O)NCC(N)=O)NC(=O)[C@@H]3CCCN3C2=O)NC1=O
IC50 [3]: 160 nM

CC[C@H](C)[C@@H]1NC(=O)[C@H]([C@@H](C)c2c(C)cc(OC)cc2C)NC(=O)[C@H](N)C(C)(C)SSC[C@@H]2NC(=O)[C@H](CC(N)=O)NC(=O)[C@H](CCC(=O)NCCCC[C@@H](C(=O)NCC(N)=O)NC(=O)[C@@H]3CCCN3C2=O)NC1=O
IC50 [3]: 8 nM

Cc1cc(O)cc(C)c1[C@H](C)[C@H](N)C(=O)N[C@H]1C(=O)NCC(=O)N[C@@H](Cc2ccccc2)C(=O)N[C@@H](C(=O)O)C(C)(C)SSC1(C)C
IC50 [10]: 210 nM | IC50 [11]: 720 nM

Cc1cc(O)cc(C)c1[C@@H](C)[C@H](N)C(=O)N[C@H]1C(=O)NCC(=O)N[C@@H](Cc2ccccc2)C(=O)N[C@@H](C(=O)O)C(C)(C)SSC1(C)C
IC50 [11]: 4300 nM

CC[C@H](C)[C@@H]1NC(=O)[C@H](Cc2ccc(O)cc2)NC(=O)[C@H](N)C(C)(C)SSC[C@@H]2NC(=O)[C@H](CC(N)=O)NC(=O)[C@H](CCC(=O)NCCCC[C@@H](C(=O)NCC(N)=O)NC(=O)[C@@H]3CCCN3C2=O)NC1=O
IC50 [3]: 130 nM
